The text below walks through data of patent US9480259B2, “Pyrazolopyrans having herbicidal and pharmaceutical properties” (BASF SE, priority 2012, dated 2016).

In this assay the target is Arabidopsis thaliana SHMT. Nature of the assay: SHMT activity assay (ED50 SHMT), coupled with N5,N10-CH2-THF dehydrogenase, NADH at 340 nm. The format is biochemical. The method in brief:
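His-tagged SHMT purified on Ni-NTA. NADH formation followed at 340 nm for 30 min; ED50 from inhibition of initial velocity.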

[1] abbreviates: Table 2, values given as upper bounds.
The mark [2] stands for this setting: Arabidopsis thaliana SHMT enzyme assay, values given as upper bounds.
Setting [3] is: inhibition of initial velocity of Arabidopsis thaliana SHMT.
[4] abbreviates: Table 2, Arabidopsis thaliana SHMT enzyme assay, values given as upper bounds.

As for `CCC1(c2cc(Cl)cc(C#N)c2)C(C#N)=C(N)Oc2[nH]nc(OC)c21` (centres unmarked) [Compound 2.598], the EC50 – broadly, the concentration needed to bring the measured effect to its halfway point – under setting [1] was below 1000 nM.

In the case of `CCC1(c2ccc(OS(=O)(=O)Cc3ccccc3)c(C)c2)C(C#N)=C(N)Oc2[nH]nc(C)c21` (centres unmarked) [Compound 2.55.], the EC50 under setting [1] is below 1000 nM.

For the compound `Cc1n[nH]c2c1C(c1cc(Cl)cc(-c3ccsc3)c1)(C1CCC1)C(C#N)=C(N)O2` (centres unmarked) [Compound 2.198.], the EC50 under setting [1] is below 10 nM.

For `Cc1n[nH]c2c1C(c1cc(C#N)cc(N(C)C(=O)CCc3nnn[nH]3)c1)(C1CCC1)C(C#N)=C(N)O2` (centres unmarked) [Compound 2.718], under setting [2], the EC50 was below 100 nM.

`CCC1(c2cccc(C(F)(F)F)c2)C(C#N)=C(N)Oc2[nH]nc(C(C)C)c21` (centres unmarked) [Compound 2.118.] gave an EC50 under setting [1] below 1000 nM.

In turn, `Cc1n[nH]c2c1C(c1cncc(Cl)c1)(C1CCC1)C(C#N)=C(N)O2` (centres unmarked) [Compound 4.11] came in with an EC50 under setting [3] below 10 nM.

`CCC1(c2ccc(OC)cc2)C(C#N)=C(N)Oc2[nH]nc(C)c21` (centres unmarked) [Compound 2.22.] yielded an EC50 under setting [1] below 1000 nM.

`Cc1n[nH]c2c1C(c1cc(Cl)cc(-c3cccc(F)c3)c1)(C1CC1)C(C#N)=C(N)O2` (centres unmarked) [Compound 2.187.] registered an EC50 under setting [1] below 100 nM.

`Cc1n[nH]c2c1C(c1cc(-c3cccc(F)c3)cs1)(C1CC1)C(C#N)=C(N)O2` (centres unmarked) [Compound 4.60] came in with an EC50 under setting [3] below 100 nM.

As to `Cc1n[nH]c2c1C(c1cc(Cl)cc(Cl)c1)(C1(F)CC1)C(C#N)=C(N)O2` (centres unmarked) [Compound 2.214.], under setting [1], the EC50 is below 10 nM.

Take `N#CC1=C(N)Oc2[nH]ncc2C1(c1cc(C#N)cc(-c2nccs2)c1)C1CCC1` (centres unmarked) [Compound 2.351]: under setting [4], the EC50 is below 10 nM.

`N#CC1=C(N)Oc2[nH]ncc2C1(c1cc(C#N)cc(C(=O)OCc2ccccc2)c1)C1CCC1` (centres unmarked) [Compound 2.369] had an EC50 under setting [4] below 10 nM.

For `CCc1n[nH]c2c1C(c1ccc(OC)c(Cl)c1)(C(C)C)C(C#N)=C(N)O2` (centres unmarked) [Compound 2.147.], the EC50 under setting [1] is below 1000 nM.

Consider `Cc1n[nH]c2c1C(c1cc(C#N)cc(-c3ccc(F)cc3)c1)(C1CCC1)C(C#N)=C(N)O2` (centres unmarked) [Compound 2.328], for which, under setting [4], the half-maximal effective concentration (EC50) was below 10 nM.

Under setting [1], `Cc1n[nH]c2c1C(c1cc(Cl)cc(-c3cccc(-c4nnn[nH]4)c3)c1)(C1CCC1)C(C#N)=C(N)O2` (centres unmarked) [Compound 2.515] came in with an EC50 below 10 nM.

The compound `CCC1(c2cc(C(F)(F)F)cc(C(F)(F)F)c2)C(C#N)=C(N)Oc2[nH]nc(COC)c21` (centres unmarked) [Compound 2.82.] came in with an EC50 under setting [1] below 1000 nM.

Under setting [1], `CCOC(=O)COc1cc(Br)cc(C2(C3(F)CC3)C(C#N)=C(N)Oc3[nH]nc(C)c32)c1` (centres unmarked) [Compound 2.479] yielded an EC50 below 100 nM.

Under setting [3], `Cc1n[nH]c2c1C(c1nc3c(Cl)cccc3s1)(C1CCC1)C(C#N)=C(N)O2` (centres unmarked) [Compound 4.45] yielded an EC50 below 10 nM.

The compound `CCC1(c2cccc(Cl)c2)C(C#N)=C(N)Oc2[nH]nc(C(C)C)c21` (centres unmarked) [Compound 2.116.] gave an EC50 under setting [1] below 1000 nM.

`COc1n[nH]c2c1C(c1cc(Cl)cc(Cl)c1)(C1CCC1)C(C#N)=C(N)O2` (centres unmarked) [Compound 2.386]: the EC50 under setting [4] was below 10 nM.

`CCC1(c2cccc(C)c2)C(C#N)=C(N)Oc2[nH]nc(C)c21` (racemic) [Compound 2.42.] yielded an EC50 under setting [1] below 10000 nM.

Under setting [1], `CCC1(c2ccc(OS(=O)(=O)c3ccc(Cl)c(Cl)c3)c(C)c2)C(C#N)=C(N)Oc2[nH]nc(C)c21` (centres unmarked) [Compound 2.56.] had an EC50 below 10000 nM.

`Cc1n[nH]c2c1C(c1cccc(Cl)c1)(C1CCC1)C(C#N)=C(N)O2` (centres unmarked) [Compound 2.172.] displayed an EC50 under setting [1] below 100 nM.

With `CCC1(c2ccc(F)cc2)C(C#N)=C(N)Oc2[nH]nc(C)c21` (centres unmarked) [Compound 2.2.], the EC50 under setting [1] is below 10000 nM.

As for `Cc1n[nH]c2c1C(c1ccc(OC(F)(F)F)cc1)(C1CCC1)C(C#N)=C(N)O2` (centres unmarked) [Compound 2.183.], the EC50 under setting [1] was below 1000 nM.

`COc1ccc(C2(C(C)C)C(C#N)=C(N)Oc3[nH]nc(C)c32)cc1Br` (centres unmarked) [Compound 2.222] displayed an EC50 under setting [4] below 10 nM.

Compound `CCCC1(c2cc(C#N)cc(C#N)c2)C(C#N)=C(N)Oc2[nH]nc(OC)c21` (centres unmarked) [Compound 2.604] returned an EC50 under setting [1] below 1000 nM.

Under setting [4], `Cc1n[nH]c2c1C(c1cc(Cl)cc(-c3cccs3)c1)(C1CCC1)C(C#N)=C(N)O2` (centres unmarked) [Compound 2.263] showed a 50% effective concentration (EC50) below 10 nM.

The compound `CSc1cccc(C2(C3CCC3)C(C#N)=C(N)Oc3[nH]nc(C)c32)c1` (centres unmarked) [Compound 2.310] returned an EC50 under setting [4] below 10 nM.

For the compound `Cc1n[nH]c2c1C(c1cc(C#N)cc(C#N)c1)(C1CC(F)C1)C(C#N)=C(N)O2` (centres unmarked) [Compound 2.714], the EC50 under setting [2] is below 100 nM.

Under setting [1], `Cc1n[nH]c2c1C(c1cc(Cl)cc(-c3ccc(NS(C)(=O)=O)cc3)c1)(C1CCC1)C(C#N)=C(N)O2` (racemic) [Compound 2.528] came in with a 50% effective concentration (EC50) below 10 nM.

`Cc1n[nH]c2c1C(c1ccc(Cl)c(Cl)c1)(C(C)C)C(C#N)=C(N)O2` (centres unmarked) [Compound 2.135.] displayed an EC50 under setting [1] below 100 nM.

In turn, `Cc1n[nH]c2c1C(c1cc(C#N)cc(-c3ccc(Cl)c(C(=O)O)c3)c1)(C1CCC1)C(C#N)=C(N)O2` (centres unmarked) [Compound 2.556] showed an EC50 under setting [1] below 10 nM.

Compound `COc1ccc(C2(C(C)C)C(C#N)=C(N)Oc3[nH]nc(C4CC4)c32)cc1Cl` (centres unmarked) [Compound 2.148.] had an EC50 under setting [1] below 1000 nM.

With `Cc1n[nH]c2c1C(c1ccc(Cl)cc1)(C1CC1)C(C#N)=C(N)O2` (centres unmarked) [Compound 2.46.], the EC50 under setting [1] is below 1000 nM.

On to `Cc1n[nH]c2c1C(c1cc(Br)cc(Br)c1)(C1CC(F)(F)C1)C(C#N)=C(N)O2` (centres unmarked) [Compound 2.703], for which the EC50 under setting [2] was below 100 nM.

Compound `Cc1n[nH]c2c1C(c1cc(Cl)cc(Cl)c1)(C1CC1)C(C#N)=C(N)O2` (centres unmarked) [Compound 2.61.] displayed an EC50 under setting [1] below 1000 nM.

For the compound `CCC1(c2ccc3c(c2)C(C)(C)C(C)C3(C)C)C(C#N)=C(N)Oc2[nH]nc(C)c21` (centres unmarked) [Compound 4.71], the EC50 under setting [3] was below 1000 nM.

`CCC1(c2cccc(C(F)(F)F)c2)C(C#N)=C(N)Oc2[nH]nc(CCC(F)F)c21` (centres unmarked) [Compound 2.106.] displayed a 50% effective concentration (EC50) under setting [1] below 10000 nM.

`CCC1(CCc2ccccc2)C(C#N)=C(N)Oc2[nH]nc(C)c21` (centres unmarked) [Compound 4.76] showed an EC50 under setting [3] below 1000 nM.

`Cc1n[nH]c2c1C(c1cc(Cl)cc(Oc3cccc(F)c3)c1)(C1CCC1)C(C#N)=C(N)O2` (centres unmarked) [Compound 2.200.]: the EC50 under setting [1] was below 100 nM.

`CCCC1(c2cc(Br)cc(C#N)c2)C(C#N)=C(N)Oc2[nH]nc(C(F)F)c21` (centres unmarked) [Compound 2.609]: the EC50 under setting [1] was below 100 nM.

`Cc1n[nH]c2c1C(c1cccc(C(F)(F)F)c1)(C1CCC1)C(C#N)=C(N)O2` (centres unmarked) [Compound 2.169.] displayed an EC50 under setting [1] below 10 nM.

With `CCC1(c2ccc(F)c(F)c2)C(C#N)=C(N)Oc2[nH]nc(C)c21` (centres unmarked) [Compound 2.16.], the EC50 under setting [1] was below 10000 nM.

Take `CCOc1n[nH]c2c1C(c1cc(C#N)cc(C(F)(F)F)c1)(C1CCC1)C(C#N)=C(N)O2` (centres unmarked) [Compound 2.391]: the EC50 under setting [4] is below 100 nM.

`CCC1(c2cc(Cl)cc(C#N)c2)C(C#N)=C(N)Oc2[nH]nc(C(C)C)c21` (centres unmarked) [Compound 2.580] returned an EC50 under setting [1] below 100 nM.

With `CCOC(=O)CS(=O)(=O)N(C)c1cc(C#N)cc(C2(C3CCC3)C(C#N)=C(N)Oc3[nH]nc(C)c32)c1` (centres unmarked) [Compound 2.719], the EC50 under setting [2] was below 100 nM.

Compound `COc1n[nH]c2c1C(c1cc(Br)cc(C#N)c1)(C1CCC1)C(C#N)=C(N)O2` (centres unmarked) [Compound 2.388] gave an EC50 under setting [4] below 10 nM.

As for `CCC1(c2cc(F)c(F)c(F)c2)C(C#N)=C(N)Oc2[nH]nc(C)c21` (centres unmarked) [Compound 2.18.], the EC50 under setting [1] was below 1000 nM.

On to `Cc1n[nH]c2c1C(c1cc(Cl)cc(Cc3nnn[nH]3)c1)(C1CCC1)C(C#N)=C(N)O2` (centres unmarked) [Compound 2.570], for which, under setting [1], the EC50 is below 10 nM.
